Test results from US12275729B2 (Merck Sharp & Dohme LLC, priority 2017, dated 2025).

Target: IDO1 (Homo sapiens, UniProt P14902)
Test: IDO1 Cellular Assay in HeLa Cells Stimulated with IFNγ
Format: cell-based
Details: about 48 hours, read-out: Hela IC50

Sequence of IDO1 (P14902 whole entry): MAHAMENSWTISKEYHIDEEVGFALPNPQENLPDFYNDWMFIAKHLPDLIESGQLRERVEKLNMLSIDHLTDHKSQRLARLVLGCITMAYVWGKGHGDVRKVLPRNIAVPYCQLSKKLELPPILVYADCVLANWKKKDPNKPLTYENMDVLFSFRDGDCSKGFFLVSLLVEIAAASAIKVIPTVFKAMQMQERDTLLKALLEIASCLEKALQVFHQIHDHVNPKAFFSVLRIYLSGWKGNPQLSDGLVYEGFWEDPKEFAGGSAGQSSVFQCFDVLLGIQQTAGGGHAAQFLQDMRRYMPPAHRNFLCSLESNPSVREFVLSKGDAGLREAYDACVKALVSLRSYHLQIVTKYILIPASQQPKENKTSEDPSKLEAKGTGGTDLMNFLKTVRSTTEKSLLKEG

Row | SMILES | IC50
1 | O=C(NC1(c2ccc3c(n2)CCCN3C(=O)c2cccc(Cl)c2)CC1)c1ccc(F)cc1 [Example 171, N-{1-[5-(3-chlorobenzene-1-carbonyl)-5,6,7,8-tetrahydro-1,5-naphthyridin-2-yl]cyclopropyl}-4-fluorobenzamide] | 2.3 nM
2 | O=C(NC1(c2ccc3c(n2)CCCN3C(=O)C2CCOCC2)CC1)c1ccc(F)cc1 [Example 172, 4-fluoro-N-{1-[5-(oxane-4-carbonyl)-5,6,7,8-tetrahydro-1,5-naphthyridin-2-yl]cyclopropyl}benzamide] | 16.1 nM
3 | Cn1cc(C(=O)N2CCCc3nc(C4(NC(=O)c5ccc(F)cc5)CC4)ccc32)cn1 [Example 173, 4-fluoro-N-{1-[5-(1-methyl-1H-pyrazole-4-carbonyl)-5,6,7,8-tetrahydro-1,5-naphthyridin-2-yl]cyclopropyl}benzamide] | 39.9 nM
4 | CC(=O)N1CCCc2nc(C3(NC(=O)c4ccc(F)cc4)CC3)ccc21 [Example 174, N-[1-(5-acetyl-5,6,7,8-tetrahydro-1,5-naphthyridin-2-yl)cyclopropyl]-4-fluorobenzamide] | 266 nM
5 | O=C(NC1(c2ccc3c(n2)CCCN3C(=O)[C@H]2CCCO2)CC1)c1ccc(F)cc1 [Example 176, 4-fluoro-N-(1-{5-[(2R)-oxolane-2-carbonyl]-5,6,7,8-tetrahydro-1,5-naphthyridin-2-yl}cyclopropyl)benzamide] | 9.7 nM
6 | O=C(NC1(c2ccc3c(n2)CCCN3C(=O)C2CCCCO2)CC1)c1ccc(F)cc1 (stereo not shown) [Example 177, 4-fluoro-N-{1-[5-(oxane-2-carbonyl)-5,6,7,8-tetrahydro-1,5-naphthyridin-2-yl]cyclopropyl}benzamide] | 7.5 nM
7 | O=C([C@H]1CCCO1)N1CCCc2nc(C3(C(=O)Nc4ccc(F)cc4)CCC3)ccc21 [Example 180, N-(4-fluorophenyl)-1-{5-[(2R)-oxolane-2-carbonyl]-5,6,7,8-tetrahydro-1,5-naphthyiridin-2-yl}cyclobutane-1-carboxamide] | 1.9 nM
8 | O=C(C1CCOCC1)N1CCCc2nc(C3(C(=O)Nc4ccc(F)cc4)CCC3)ccc21 [Example 181, N-(4-fluorophenyl)-1-[5-(oxane-4-carbonyl)-5,6,7,8-tetrahydro-1,5-naphthyridin-2-yl]cyclobutane-1-carboxamide] | 3.1 nM
9 | O=C(C1CCO1)N1CCCc2nc(C3(C(=O)Nc4ccc(F)cc4)CCC3)ccc21 (stereo not shown) [Example 182, N-(4-fluorophenyl)-1-[5-(oxetane-2-carbonyl)-5,6,7,8-tetrahydro-1,5-naphthyridin-2-yl]cyclobutane-1-carboxamide] | 5.2 nM
10 | O=C(NC1(c2ccc3c(n2)CCCN3C(=O)C2CC2)CCC1)c1ccc(Cl)cc1 [Example 183, 4-chloro-N-{1-[5-(cyclopropanecarbonyl)-5,6,7,8-tetrahydro-1,5-naphthyridin-2-yl]cyclobutyl}benzamide] | 5.2 nM
11 | CC(C)(C(=O)Nc1ccc(F)cc1)c1ccc2c(n1)CCCN2C(=O)C1CC1 [Example 184, 2-[5-(cyclopropanecarbonyl)-5,6,7,8-tetrahydro-1,5-naphthyridin-2-yl]-N-(4-fluorophenyl)-2-methylpropanamide] | 10.8 nM
12 | CC(C)(C(=O)Nc1ccc(F)cc1)c1ccc2c(n1)CCCN2C(=O)C1CCOCC1 [Example 186, N-(4-fluorophenyl)-2-methyl-2-[5-(oxane-4-carbonyl)-5,6,7,8-tetrahydro-1,5-naphthyridin-2-yl]propanamide] | 5.9 nM
13 | CC(C)(C(=O)Nc1ccc(F)cc1)c1ccc2c(n1)CCCN2C(=O)c1cccc(Cl)c1 [Example 188, 2-[5-(3-chlorobenzene-1-carbonyl)-5,6,7,8-tetrahydro-1,5-naphthyridin-2-yl]-N-(4-fluorophenyl)-2-methylpropanamide] | 5.7 nM
14 | CC(NC(=O)c1ccc(F)cc1)c1ccc2c(n1)C(=O)CCN2C(=O)C1CC1 (stereo not shown) [Example 192, N-(1-(5-(cyclopropanecarbonyl)-8-oxo-5,6,7,8-tetrahydro-1,5-naphthyridin-2-yl)ethyl)-4-fluorobenzamide] | 825 nM
15 | CC(NC(=O)c1ccc(F)cc1)c1ccc2c(n1)C(F)(F)CCN2C(=O)C1CC1 (stereo not shown) [Example 193, N-(1-(5-(cyclopropanecarbonyl)-8,8-difluoro-5,6,7,8-tetrahydro-1,5-naphthyridin-2-yl)ethyl)-4-fluorobenzamide] | 5290 nM
16 | CC(NC(=O)c1ccc(F)cc1)c1ccc2c(n1)C(O)CCN2C(=O)C1CC1 (stereo not shown) [Example 196, N-(1-(5-(cyclopropanecarbonyl)-8-hydroxy-5,6,7,8-tetrahydro-1,5-naphthyridin-2-yl)ethyl)-4-fluorobenzamide] | 342 nM
17 | COC(=O)N1CCCc2cc(C3(C(=O)Nc4ccc(F)cn4)CCC3)ccc21 [Example 206, methyl 6-{1-[(5-fluoropyridin-2-yl)carbamoyl]cyclobutyl}-3,4-dihydroquinoline-1(2H)-carboxylate] | 1.5 nM
18 | CC(NC(=O)c1ccc(F)cc1)c1ccc2c(n1)CCCN2C(=O)OCCF (stereo not shown) [Example 210, 2-fluoroethyl 6-{1-[(4-fluorobenzene-1-carbonyl)amino]ethyl}-3,4-dihydro-1,5-naphthyridine-1(2H)-carboxylate] | 5.5 nM
19 | CCOC(=O)N1CCCc2cc(C3(C(=O)Nc4ccc(F)cn4)CCC3)ccc21 [Example 211, ethyl 6-{1-[(5-fluoropyridin-2-yl)carbamoyl]-cyclobutyl}-3,4-dihydroquinoline-1(2H)-carboxylate] | 2.2 nM

Row | SMILES | IC50
20 | O=C(NC1(c2ccc3c(n2)CCCN3C(=O)NC2CC2)CC1)c1ccc(F)cc1 [Example 214, N-cyclopropyl-6-{1-[(4-fluorobenzene-1-carbonyl)amino]cyclopropyl}-3,4-dihydro-1,5-naphthyridine-1(2H)-carboxamide] | 159 nM
21 | COC(=O)N1CCCc2nc(C3(NC(=O)c4ccc(F)cc4)CC3)ccc21 [Example 215, methyl 6-{1-[(4-fluorobenzene-1-carbonyl)amino]cyclopropyl}-3,4-dihydro-1,5-naphthyridine-1(2H)-carboxylate] | 57 nM
22 | COC(=O)N1CCCc2nc(C3(C(=O)Nc4ccc(F)cc4)CCC3)ccc21 [Example 216, methyl 6-{1-[(4-fluorophenyl)carbamoyl]cyclobutyl}-3,4-dihydro-1,5-naphthyridine-1(2H)-carboxylate] | 1.5 nM
23 | CC(C)NC(=O)N1CCCc2nc([C@@H](C)C(=O)Nc3ccc(F)cc3)ccc21 [Example 217, 6-{(2R)-1-[(4-fluorophenyl)amino]-1-oxopropan-2-yl}-N-(propan-2-yl)-3,4-dihydro-1,5-naphthyridine-1(2H)-carboxamide] | 24.6 nM
24 | COC(=O)N1CCCc2nc(C3(C(=O)Nc4ccc(Cl)cc4)CCC3)ccc21 [Example 218, methyl 6-{1-[(4-chlorophenyl)carbamoyl]cyclobutyl}-3,4-dihydro-1,5-naphthyridine-1(2H)-carboxylate] | 5.1 nM
25 | COC(=O)N1CCCc2nc(C3(NC(=O)c4ccc(Cl)cc4)CCC3)ccc21 [Example 219, methyl 6-{1-[(4-chlorobenzene-1-carbonyl)amino]cyclobutyl}-3,4-dihydro-1,5-naphthyridine-1(2H)-carboxylate] | 9.9 nM
26 | COC(=O)N1CCCc2nc(C(C)C(=O)Nc3ccc(F)cc3)ccc21 (stereo not shown) [Example 220, methyl 6-{1-[(4-fluorophenyl)amino]-1-oxopropan-2-yl}-3,4-dihydro-1,5-naphthyridine-1(2H)-carboxylate] | 1.9 nM
27 | COC(=O)N1CCCc2nc(C(C)C(=O)Nc3ccc(Cl)cc3)ccc21 (stereo not shown) [Example 221, methyl 6-{1-[(4-chlorophenyl)amino]-1-oxopropan-2-yl}-3,4-dihydro-1,5-naphthyridine-1(2H)-carboxylate] | 19.8 nM
28 | COC(=O)N1CCCc2nc(C3(C(=O)Nc4ccc(F)cc4)CC3)ccc21 [Example 222, methyl 6-{1-[(4-fluorophenyl)carbamoyl]cyclopropyl}-3,4-dihydro-1,5-naphthyridine-1(2H)-carboxylate] | 21.8 nM
29 | COC(=O)N1CCCc2nc(C(C)C(=O)Nc3ccc(Cl)cc3)ccc21 (stereo not shown) [Example 223, methyl 6-{1-[(4-chlorophenyl)amino]-1-oxopropan-2-yl}-3,4-dihydro-1,5-naphthyridine-1(2H)-carboxylate] | 10.8 nM
30 | CC(NC(=O)c1ccc(F)cc1)c1ccc2c(n1)CCCN2CC1CC1 (stereo not shown) [Example 227, N-{1-[5-(cyclopropylmethyl)-5,6,7,8-tetrahydro-1,5-naphthyridin-2-yl]ethyl}-4-fluorobenzamide] | 70.5 nM
31 | CC(C(=O)Nc1ccc(F)cc1)c1ccc2c(c1)CCCN2C1CCCCC1 (stereo not shown) [Example 228, 2-(1-cyclohexyl-1,2,3,4-tetrahydroquinolin-6-yl)-N-(4-fluorophenyl)propanamide] | 4150 nM
32 | CC(C(=O)Nc1ccc(F)cc1)c1ccc2c(c1)CCCN2C1CCOCC1 (stereo not shown) [Example 230, N-(4-fluorophenyl)-2-[1-(oxan-4-yl)-1,2,3,4-tetrahydroquinolin-6-yl]propanamide] | 5790 nM
33 | CC(C(=O)Nc1ccc(F)cc1)c1ccc2c(c1)CCCN2C1COC1 (stereo not shown) [Example 231, N-(4-fluorophenyl)-2-[1-(oxetan-3-yl)-1,2,3,4-tetrahydroquinolin-6-yl]propanamide] | 91.1 nM
34 | CC(NC(=O)c1ccc(F)cc1)c1ccc2c(n1)CCCN2c1cc(C(F)(F)F)ncn1 (stereo not shown) [Example 235, 4-fluoro-N-(1-{5-[6-(trifluoromethyl)pyrimidin-4-yl]-5,6,7,8-tetrahydro-1,5-naphthyridin-2-yl}ethyl)benzamide] | 17 nM
35 | Cc1cc(N2CCCc3nc(C4(NC(=O)c5ccc(F)cc5)CC4)ccc32)ccn1 [Example 243, 4-fluoro-N-{1-[5-(2-methylpyridin-4-yl)-5,6,7,8-tetrahydro-1,5-naphthyridin-2-yl]cyclopropyl}benzamide] | 14.3 nM
36 | O=C(NC1(c2ccc3c(n2)CCCN3c2ccncn2)CC1)c1ccc(F)cc1 [Example 246, 4-fluoro-N-(1-(5-(pyrimidin-4-yl)-5,6,7,8-tetrahydro-1,5-naphthyridin-2-yl)cyclopropyl)benzamide] | 9.3 nM
37 | O=C(NC1(c2ccc3c(n2)CCCN3c2ccccn2)CC1)c1ccc(F)cc1 [Example 247, 4-fluoro-N-(1-(5-(pyridin-2-yl)-5,6,7,8-tetrahydro-1,5-naphthyridin-2-yl)cyclopropyl)benzamide] | 13.9 nM
